In this assay the test system is PMA-differentiated THP-1 cells. The assay can be described thus: IL-1β production in PMA-differentiated THP-1 cells stimulated with gramicidin (hTHP-1 assay containing 2% fetal bovine serum; Procedures 1 and 2). The format is cell-based, human. Particulars: 2% fetal bovine serum. In a few lines:
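Compound titrations in 0.37% final DMSO were added to THP-1 cells that had been plated after 16-18 h PMA treatment, 50,000 per well in 2% FBS. One hour later the cells received gramicidin (5 μM, 2 h) and were centrifuged. HTRF detected IL-1β in the collected supernatants.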

[1] abbreviates: Homo sapiens, THP-1, Table B2, class symbols, read-out: hTHP-1 IC50.
Setting [2] is: Homo sapiens, THP-1, Table B1, numeric bounds, read-out: Average IC50 of compounds in hTHP-1 assay: hTHP-1 IC50.
Where [3] appears, read: Homo sapiens, THP-1, Table B3, hTHP-1 assay, class symbols, read-out: IC50.
Where [4] appears, read: Homo sapiens, THP-1, Table B1, class symbols, read-out: Average IC50 of compounds in hTHP-1 assay: hTHP-1 IC50.
The mark [5] stands for this setting: Table B3, hTHP-1 assay, class symbols, read-out: IC50.
[6] abbreviates: Table B2, class symbols, read-out: hTHP-1 IC50.

A word on the pIC50: it is the negative decadic logarithm of the IC50, by convention in mol/L.

SMILES strings stand for the structures. pIC50: −log10 of the molar value. Like-named read-outs stand apart in the source and are kept apart here.

For `CC(C)(O)c1cc(S(N)(=O)=NC(=O)Nc2c3c(nc4c2CCC4(C)C)CCC3)nn1-c1ccccc1` (single isomer, unassigned) [Compound 663b, (R) or (S)-N′-((3,3-dimethyl-1,2,3,5,6,7-hexahydrodicyclopenta [b,e]pyridin-8-yl)carbamoyl)-5-(2-hydroxypropan-2-yl)-1-phenyl-1H-pyrazole-3-sulfonimidamide], the pIC50 under setting [1] is 5.30 to 6.00. Take `Cc1c(-c2ccccc2)nc2c(c1NC(=O)N=S(N)(=O)c1cnc(C(C)(C)O)s1)CCC2` (single isomer, unassigned) [Compound 143a, (S) or (R)-2-(2-hydroxy-propan-2-yl)-N′-((3-methyl-2-phenyl-6,7-dihydro-5H-cyclopenta[b]pyridin-4-yl)carbamoyl)thiazole-5-sulfonimidamide]: the pIC50 under setting [2] is < 4.52. Still for that read-out and setting: for `CC(C)(O)c1ncc(S(N)(=O)=NC(=O)Nc2nc3ccccc3c3c2CCC3)s1` (stereo not shown) [Compound 111, N′-((2,3-dihydro-1H-cyclopenta[c]quinolin-4-yl)carbamoyl)-2-(2-hydroxypropan-2-yl)thiazole-5-sulfonimidamide] the value was < 4.52.

`CC(C)n1cc(Cl)c(S(N)(=O)=NC(=O)Nc2c3c(nc4c2CCC4)CCC3)n1` (single isomer, unassigned) [Compound 694a, (S) or (R)-4-Chloro-N′-((1,2,3,5,6,7-hexahydrodicyclopenta [b,e]pyridin-8-yl)carbamoyl)-1-isopropyl-1H-pyrazole-3-sulfonimidamide]: the negative logarithm of the IC50 (pIC50) (Homo sapiens, THP-1, Table B2, numeric bounds, read-out: hTHP-1 IC50) is < 4.52. With `Cc1c(C(F)(F)F)nc2c(c1NC(=O)N=S(N)(=O)c1cnn3c1OC[C@H](O)C3)CCC2` (stereo partly drawn) [Example 601, (6R)-6-hydroxy-N′-((3-methyl-2-(trifluoromethyl)-6,7-dihydro-5H-cyclopenta[b]pyridin-4-yl)carbamoyl)-6,7-dihydro-5H-pyrazolo[5,1-b][1,3]oxazine-3-sulfonimidamide], under setting [3], the pIC50 was 4.52 to 5.30. Take `CCn1cc(Cl)c(S(N)(=O)=NC(=O)Nc2c(C)c(C(F)(F)F)nc3c2CCC3)n1` (stereo not shown) [Compound 729]: the pIC50 under setting [1] was 6.00 to 6.70. For `Cn1nc(S(N)(=O)=NC(=O)Nc2c3c(nc4c2CCC4)CCC3)cc1C(C)(C)O` (stereo not shown) [Compound 158, N-((1,2,3,5,6,7-hexahydrodicyclopenta[b,e]pyridin-8-yl)carbamoyl)-5-(2-hydroxypropan-2-yl)-1-methyl-1H-pyrazole-3-sulfonimidamide], the negative logarithm of the IC50 (pIC50) under setting [4] was 5.30 to 6.00. On to `COCCOC[C@@](C)(O)c1ncc(S(N)(=O)=NC(=O)Nc2c3c(nc4c2CCC4(C)C)CCC3)s1` (stereo partly drawn) [Compound 736, N′-((3,3-dimethyl-1,2,3,5,6,7-hexahydrodicyclopenta [b,e]pyridin-8-yl)carbamoyl)-2-((R)-2-hydroxy-1-(2-methoxyethoxy)propan-2-yl)thiazole-5-sulfonimidamide], for which the pIC50 under setting [1] was 5.30 to 6.00.

`CCn1cc(F)c(S(N)(=O)=NC(=O)Nc2c3c(nc(C4CC4)c2C2CC2)CCC3)n1` (single isomer, unassigned) [Example 707, (R) or (S)-N′-((2,3-dicyclopropyl-6,7-dihydro-5H-cyclopenta[b]pyridin-4-yl)carbamoyl)-1-ethyl-4-fluoro-1H-pyrazole-3-sulfonimidamide]: under setting [5], the negative-log IC50 (pIC50) was 7.40 to 8.10.

Regarding `Cc1c(C2(C)CC2)nc2c(c1NC(=O)N=S(N)(=O)c1cc(C(C)(C)O)cs1)CCC2` (single isomer, unassigned) [Compound 669b, (R) or (S)-4-(2-Hydroxypropan-2-yl)-N′-((3-methyl-2-(1-methylcyclopropyl)-6,7-dihydro-5H-cyclopenta[b]pyridin-4-yl)carbamoyl) thiophene-2-sulfonimidamide], the pIC50 under setting [1] was 4.52 to 5.30. On the same count and under the same terms, for `CC(C)(O)c1cncc(S(N)(=O)=NC(=O)Nc2c3c(nc4c2CCC4(C)C)CCC3)c1` (stereo not shown) [Compound 684, N′-((3,3-dimethyl-1,2,3,5,6,7-hexahydrodicyclopenta[b,e]pyridin-8-yl)carbamoyl)-5-(2-hydroxypropan-2-yl)pyridine-3-sulfonimidamide] the value was 6.00 to 6.70.

In the case of `CCn1ccc(S(N)(=O)=NC(=O)Nc2c3c(nc(C4CC4)c2C2CC2)CCC3)n1` (single isomer, unassigned) [Example 699, (R) or (S)-N′-((2,3-dicyclopropyl-6,7-dihydro-5H-cyclopenta[b]pyridin-4-yl)carbamoyl)-1-ethyl-1H-pyrazole-3-sulfonimidamide], the pIC50 under setting [5] was 6.00 to 6.70. For `Cc1nc2c(c(NC(=O)N=S(N)(=O)c3cnc(C(C)(C)O)s3)c1C(C)C)CCC2` (stereo not shown) [Compound 116, 2-(2-hydroxypropan-2-yl)-N′-((3-isopropyl-2-methyl-6,7-dihydro-5H-cyclopenta[b]pyridin-4-yl)carbamoyl)thiazole-5-sulfonimidamide], the pIC50 under setting [4] is 4.52 to 5.30. With `CCn1cc(F)c(S(N)(=O)=NC(=O)Nc2c(C)c(C(F)(F)F)nc3c2CCC3)n1` (single isomer, unassigned) [Example 649, (R) or (S)-1-ethyl-4-fluoro-N′-((3-methyl-2-(trifluoromethyl)-6,7-dihydro-5H-cyclopenta[b]pyridin-4-yl)carbamoyl)-1H-pyrazole-3-sulfonimidamide], the pIC50 under setting [5] is 6.70 to 7.40. In the case of `CCc1nc2c(c(NC(=O)N=S(N)(=O)c3sc(C(C)(C)O)cc3F)c1C1CC1)CCC2` (single isomer, unassigned) [Compound 631a, (S) or (R)-N′-((3-cyclopropyl-2-ethyl-6,7-dihydro-5H-cyclopenta[b]pyridin-4-yl)carbamoyl)-3-fluoro-5-(2-hydroxypropan-2-yl)thiophene-2-sulfonimidamide], the negative logarithm of the IC50 (pIC50) under setting [6] was 4.52 to 5.30.

For the molecule `Cc1c(C(C)(C)C)nc2c(c1NC(=O)N=S(N)(=O)c1cc(C(C)(C)O)cs1)CCC2` (single isomer, unassigned) [Compound 657b, (R) or (S)-N′-((2-(tert-butyl)-3-methyl-6,7-dihydro-5H-cyclopenta[b]pyridin-4-yl)carbamoyl)-4-(2-hydroxypropan-2-yl)thiophene-2-sulfonimidamide], under setting [1], the negative logarithm of the IC50 (pIC50) is 4.52 to 5.30. On to `C[C@@H]1CCc2c1nc1c(c2NC(=O)N=S(N)(=O)c2nn(-c3ccccc3)cc2F)CCC1` (single isomer, unassigned) [Example 791, (R) or (S)-4-fluoro-N′-(((R)-3-methyl-1,2,3,5,6,7-hexahydrodicyclopenta[b,e]pyridin-8-yl)carbamoyl)-1-phenyl-1H-pyrazole-3-sulfonimidamide], for which, for the setting “Homo sapiens, THP-1, Table B4, class symbols, read-out: hTHP-1 IC50”, the pIC50 is 6.00 to 6.70.

For the molecule `Cc1c(C2(F)CC2)nc2c(c1NC(=O)N=[S@@](N)(=O)c1cnc(C(C)(C)O)s1)CCC2` [Example 579, (R)-N′-((2-(1-fluorocyclopropyl)-3-methyl-6,7-dihydro-5H-cyclopenta[b]pyridin-4-yl)carbamoyl)-2-(2-hydroxypropan-2-yl)thiazole-5-sulfonimidamide], under setting [3], the pIC50 was 5.30 to 6.00. Still for that read-out and setting: for `CC1(C)CCc2c1nc1c(c2NC(=O)N=S(N)(=O)c2cnc(C(C)(CO)CO)s2)CCC1` (stereo not shown) [Example 604, 2-(1,3-Dihydroxy-2-methylpropan-2-yl)-N′-((3,3-dimethyl-1,2,3,5,6,7-hexahydrodicyclopenta[b,e]pyridin-8-yl)carbamoyl)thiazole-5-sulfonimidamide] the value was 6.70 to 7.40. For the molecule `CC(C)(O)c1ccc(S(N)(=O)=NC(=O)Nc2c3c(nc4c2CCC4(C)C)CCC3)cn1` (stereo not shown) [Compound 673, N′-((3,3-dimethyl-1,2,3,5,6,7-hexahydrodicyclopenta[b,e]pyridin-8-yl)carbamoyl)-6-(2-hydroxypropan-2-yl)pyridine-3-sulfonimidamide], the pIC50 under setting [1] was 4.52 to 5.30. `CC1CCc2c1nc1c(c2NC(=O)N=S(N)(=O)c2sc(C(C)(C)O)cc2F)CCC1` (single isomer, unassigned) [Compound 103ab, (S,S) or (S,R)-3-fluoro-5-(2-hydroxypropan-2-yl)-N′-((3-methyl-1,2,3,5,6,7-hexahydrodicyclo-penta[b,e]pyridin-8-yl)carbamoyl)thiophene-2-sulfonimidamide]: the pIC50 (Table B1, class symbols, read-out: Average IC50 of compounds in hTHP-1 assay: hTHP-1 IC50) was 4.52 to 5.30. As for `CC(C)c1csc(S(N)(=O)=NC(=O)Nc2c3c(nc4c2CCC4)CCC3)c1` (stereo not shown) [Compound 173, N′-((1,2,3,5,6,7-hexahydrodicyclopenta[b,e]pyridin-8-yl)carbamoyl)-4-isopropylthiophene-2-sulfonimidamide], under setting [4], the pIC50 is 6.00 to 6.70. `CC(C)(O)c1scc(S(N)(=O)=NC(=O)Nc2c3c(nc4c2CCC4)CCC3)c1F` (single isomer, unassigned) [Compound 701a, (R) or (S)-4-Fluoro-N′-((1,2,3,5,6,7-hexahydrodicyclopenta [b,e]pyridin-8-yl)carbamoyl)-5-(2-hydroxypropan-2-yl)thiophene-3-sulfonimidamide]: the pIC50 under setting [1] was 4.52 to 5.30.

With `CC(C)(O)c1sc(S(N)(=O)=NC(=O)Nc2c3c(nc4c2CCC4(C)C)CCC3)cc1F` (stereo not shown) [Compound 613, N′-((3,3-dimethyl-1,2,3,5,6,7-hexahydrodicyclopenta[b,e]pyridin-8-yl)carbamoyl)-4-fluoro-5-(2-hydroxypropan-2-yl)thiophene-2-sulfonimidamide], the negative logarithm of the IC50 (pIC50) under setting [1] was 6.00 to 6.70. For `Cc1c(C(F)(F)F)nc2c(c1NC(=O)N=S(N)(=O)c1sc(C(C)(C)O)cc1F)CCC2` (single isomer, unassigned) [Compound 632a, (R) or (S)-3-Fluoro-5-(2-hydroxypropan-2-yl)-N′-((3-methyl-2-(trifluoromethyl)-6,7-dihydro-5H-cyclopenta[b]pyridin-4-yl)carbamoyl) thiophene-2-sulfonimidamide], the pIC50 under setting [6] was 6.70 to 7.40.

The values above are taken from patent US20230031406A1, “COMPOUNDS AND COMPOSITIONS FOR TREATING CONDITIONS ASSOCIATED WITH NLRP ACTIVITY” (Novartis AG, priority 2018, published 2023).
